Measurements taken from patent publication US8148431B2, “Osteogenesis promoter containing β-cryptoxanthin as the active ingredient” (Kemin Health, L.C., priority 2002, dated 2012).

System: diaphysis tissue of the femur
Assay: Bone resorption (PTH or prostaglandin E2): bone calcium level in cultured diaphysis tissue
Type: cell-based, Wistar male rats
Method: The femurs were extracted from rats (Wistar male rats; 4 to 5 weeks old) (purchased from Japan SLC Co., Ltd. and fed with solid Oriental yeast (MF)) under anesthesia with ether under a germfree condition. The femurs were each washed with 0.25 M sucrose solution, and then divided into the diaphysis (cortical bone) and metaphysis (cancellous bone). The bone tissue pieces were cultured in a culture medium (Dulbecco's modified culture medium containing 5% of glucose; serum-free medium) containing. β-cryptoxanthin, etc. at […] in an incubator filled with 5% CO2-95% air for 48 hours. β-cryptoxanthin used was “β-cryptoxanthin” of Extrasynthase Co., cycloheximide used was “Cycloheximide” of Sigma Co. Ltd., β-carotene was “β-carotene” of Sigma ? , xanthine was “Xanthine” of Sigma Co, Ltd., parathormone was “Parathormone” of Sigma Co. Ltd. and prostaglandin E2 was “Prostaglandin E2” of Sigma Co. Ltd. In the control, only the culture medium was used without β-cryptoxanthin or the like.
Bone calcium level in the bone tissue was determined. After the culture in the incubator, the tissue pieces were washed with 0.25 M sucrose solution and dried and then the bone was weighed. Then concentrated nitric acid was added to the tissue pieces. After the incineration at 120° C. for 12 hours, the bone calcium level was determined with an atomic absorption photometer (“Perkin-Elmer 303” of Perkin-Elmer Co.).
The bone mineral dissolution-inhibiting effect of β-cryptoxanthin was examined. […] PTH also has a pathophysiologic role on the expression of osteoporosis caused by the aging. It is known that prostaglandin E2 also causes physiologic bone mineral dissolution. The diaphysis or metaphysis tissue of the femur was cultured in the presence of 10^−7 M PTH or 10^−5 M prostaglandin E2 for 48 hours and then calcium level in the bone tissue was determined. In another experiment, the culture was conducted in the same manner as that described above in the coexistence of them and β-cryptoxanthin (10^−8 M to 10^−6 M) and then calcium level in the bone tissue was determined. In each test group, the determination was conducted 6 to 8 times and the results were represented by the average value and the standard error. The significant difference was determined by Student's t-test. The result was compared with that of the control. When P value was not higher than 0.01 (*) as compared with the control or it is not higher than 0.1 (#) as compared with that of prostaglandin E2, the results were statistically significant.

`CC1=C(/C=C/C(C)=C/C=C/C(C)=C/C=C/C=C(C)/C=C/C=C(C)/C=C/C2=C(C)C[C@@H](O)CC2(C)C)C(C)(C)CCC1` [β-cryptoxanthin] was tested, and the “Control of prostaglandin E2-caused reduction of calcium level in the bone tissue (in words)” value (diaphysis tissue, β-cryptoxanthin 10^−5 to 10^−6 M (so in the source) with prostaglandin E2 10^−5 M) was “completely controlled” and the “Control of PTH-caused reduction of calcium level in the diaphysis tissue (in words)” value (β-cryptoxanthin 10^−8 to 10^−6 M in the presence of PTH) was “significantly controlled”.
